In US20230092389A1, “UNIT DOSES, AEROSOLS, KITS, AND METHODS FOR TREATING HEART CONDITIONS BY PULMONARY ADMINISTRATION” (InCarda Therapeutics, Inc., priority 2017, published 2023):
Values joined by “and” are separate entries in the source; they are usually repeats but may differ in a detail not shown here. Identical values can stand only once. Like-named read-outs stand apart in the source and are kept apart here.

What was measured:
[1] = tested on: pigs with induced atrial fibrillation; assay: ACh and burst-pacing induced AF duration, IT instillation, pigs (Example 5); format: in vivo, Yorkshire pigs; details: for AF duration, mean: n=3, no drug 11±0.6
Experimental: At one min after intrapericardial administration of ACh (1 ml of 100 mM), burst pacing was performed to initiate AF in the control cohort (FIG. 60). In the experimental cohort, after ACh and burst-pacing-induced AF, a stable period of 2 min of AF was allowed (FIG. 60). […] Table 12; FIG. 61).

porcine model = assay: Slow versus rapid IV infusion, porcine model; format: in vivo, pig; details: slow (10 min) vs rapid (2 min) IV infusion
healthy volunteers [2] = assay: Phase 1 (FLE-001) pulmonary safety: spirometry, SpO2, auscultation, chest x-ray; format: in vivo, human
Experimental: Pulmonary safety was assessed by performing lung spirometry tests and measuring peripheral oxygen saturation (SpO2%) prior to dosing and at various times after completion of the inhalation. Lung spirometry tests evaluated all lung function parameters, including forced vital capacity (FVC), forced expiratory volume in 1 second (FEV1), peak expiratory flow (PEF), and forced expiratory flow at 25% and 75% intervals (FEF25-75). Auscultation and respiration rate were also measured prior to dosing and at various times after inhalation. Chest x-rays were performed on subjects before and after flecainide inhalation.

[3] = tested on: dogs with induced atrial fibrillation; format: in vivo, dog
Experimental: Atrial Fibrillation Model: A venous catheter was placed in a peripheral vessel (i.e., cephalic) for administration of anesthetic. […] Following induction, animals were endotracheally intubated and mechanically ventilated (˜12 breaths/minute with a tidal volume of 200-300 mL). Subsequently, a cut-down on a jugular vein permitted introduction of a pacing lead into the right atrium. Transthoracic electrodes forming ECG lead II were placed. For test/vehicle article delivery, a 4F catheter was introduced through the trachea and wedged into a small airway, and a venous catheter was placed in a peripheral vessel (i.e., cephalic). […] Approximately 5 min after administration of this parasympathomimetic was started; the following experiments were performed: […] Observations were made for up to 10 minutes. […] Vehicle was only water.

[4] = tested on: beagle dogs with induced AF; assay: Cardioversion of induced AF by IT or IV flecainide, anesthetized dogs (Example 7); format: in vivo; details: for Time to NSR, individual animals: cumulative dose 0.75-1.0 mg/kg, animals 001-006
Experimental: The study was carried out in anesthetized healthy adult beagle dogs with induced AF. Acute AF was induced using the combination of phenylephrine ([…]), to increase heterogeneity of atrial refractory periods via increased loading and through a baroreceptor-mediated increase in parasympathetic efferent activity, and right atrial burst pacing (40-50 Hz for ˜15 min). The AF induced using this method was, in general, stable for more than 30 mins.
The cardiac rhythm was monitored prior to, during AF, and up to 10 min post-dosing and/or until conversion to NSR.

healthy volunteers [5] = details: in vivo
Experimental: 3 cohorts of subjects, in total 34 healthy adult volunteers, were recruited for Part A study.
Part B was an open label non-randomized crossover in a cohort of 6 evaluable healthy adult volunteers.
In addition, the effects of changing posture from semi-recumbent to seated upright, vice-versa and during inhalation on HR and BP were assessed (Cohort 5).

[6] = Cohort 1, 20 mg eTLD, 3 hours Post-dose
[7] = Cohort 1, 20 mg eTLD, 12 hours Pre-dose
[8] = Cohort 1, 20 mg eTLD, 24 hours Post-dose
[9] = Cohort 2, 40 mg eTLD, 3 hours Post-dose
[10] = Cohort 2, 40 mg eTLD, 12 hours Pre-dose
[11] = Cohort 2, 40 mg eTLD, 24 hours Post-dose

Compound: O=C(NCC1CCCCN1)c1cc(OCC(F)(F)F)ccc1OCC(F)(F)F (centres unmarked) [flecainide]
- pH of solution in water (2.6 mg/mL solution): 5.0
- appearance of solution (diltiazem hydrochloride 50 mg/ml, flecainide acetate 30 mg/ml in distilled water): clear with no visible particulate matter
- recurrence of AF after restoration of sinus rhythm ([1]; 30-min window of observation): no recurrence of AF occurred
- reduction in AF duration from the untreated condition ([1]; IT 1.5 mg/kg): 73%
- AF duration, mean ([1]; IT 1.5 mg/kg): 3 ± 0.2 min
- AF duration, mean ([1]; IT 1.5 mg/kg, listed as Flecainide): 3 min
- AF duration, individual pigs ([1]; IT 1.5 mg/kg, pigs 239, 236, 238, no drug 12, 10, 12): 3 min (2×) and 4 min
- correlation of venous plasma levels with QRS duration (porcine model): positively correlated with QRS duration
- Oxygen Saturation (SpO2%), mean (healthy volunteers [2]; Cohort 1, 20 mg eTLD, 15 min Postdose): 97%
- Oxygen Saturation (SpO2%), mean (healthy volunteers [2]; Cohort 1, 20 mg eTLD, 30 min Postdose): 97%
- Oxygen Saturation (SpO2%), mean (healthy volunteers [2]; Cohort 1, 20 mg eTLD, 45 min Postdose): 97%
- Oxygen Saturation (SpO2%), mean (healthy volunteers [2]; Cohort 1, 20 mg eTLD, 60 min Postdose): 97%
- Oxygen Saturation (SpO2%), mean (healthy volunteers [2]; Cohort 1, 20 mg eTLD, 75 min Postdose): 98%
- Oxygen Saturation (SpO2%), mean (healthy volunteers [2]; Cohort 1, 20 mg eTLD, 90 min Postdose): 98%
- Oxygen Saturation (SpO2%), mean (healthy volunteers [2]; Cohort 1, 20 mg eTLD, 105 min Postdose): 97%
- Oxygen Saturation (SpO2%), mean (healthy volunteers [2]; Cohort 1, 20 mg eTLD, 120 min Postdose): 98%
- FEF25-75, mean (healthy volunteers [2]; [6]): 5.48 L/s
- FEV1, mean (healthy volunteers [2]; [6]): 5.27 L
- FVC, mean (healthy volunteers [2]; [6]): 6.42 L
- PEF, mean (healthy volunteers [2]; [6]): 10.87 L/s
- FEF25-75, mean (healthy volunteers [2]; [7]): 5.38 L/s
- FEV1, mean (healthy volunteers [2]; [7]): 5.26 L
- FVC, mean (healthy volunteers [2]; [7]): 6.02 L
- PEF, mean (healthy volunteers [2]; [7]): 11.30 L/s
- FEF25-75, mean (healthy volunteers [2]; [8]): 5.40 L/s
- FEV1, mean (healthy volunteers [2]; [8]): 5.18 L
- FVC, mean (healthy volunteers [2]; [8]): 6.36 L
- PEF, mean (healthy volunteers [2]; [8]): 11.09 L/s
- Oxygen Saturation (SpO2%), mean (healthy volunteers [2]; Cohort 1, 20 mg eTLD, Predose): 98%
- Oxygen Saturation (SpO2%), mean (healthy volunteers [2]; Cohort 2, 40 mg eTLD, 15 min Postdose): 96%
- Oxygen Saturation (SpO2%), mean (healthy volunteers [2]; Cohort 2, 40 mg eTLD, 30 min Postdose): 97%
- Oxygen Saturation (SpO2%), mean (healthy volunteers [2]; Cohort 2, 40 mg eTLD, 45 min Postdose): 96%
- Oxygen Saturation (SpO2%), mean (healthy volunteers [2]; Cohort 2, 40 mg eTLD, 60 min Postdose): 96%
- Oxygen Saturation (SpO2%), mean (healthy volunteers [2]; Cohort 2, 40 mg eTLD, 75 min Postdose): 97%
- Oxygen Saturation (SpO2%), mean (healthy volunteers [2]; Cohort 2, 40 mg eTLD, 90 min Postdose): 97%
- Oxygen Saturation (SpO2%), mean (healthy volunteers [2]; Cohort 2, 40 mg eTLD, 105 min Postdose): 97%
- Oxygen Saturation (SpO2%), mean (healthy volunteers [2]; Cohort 2, 40 mg eTLD, 120 min Postdose): 97%
- FEF25-75, mean (healthy volunteers [2]; [9]): 4.34 L/s
- FEV1, mean (healthy volunteers [2]; [9]): 4.96 L
- FVC, mean (healthy volunteers [2]; [9]): 6.19 L
- PEF, mean (healthy volunteers [2]; [9]): 10.66 L/s
- FEF25-75, mean (healthy volunteers [2]; [10]): 5.00 L/s
- FEV1, mean (healthy volunteers [2]; [10]): 5.04 L
- FVC, mean (healthy volunteers [2]; [10]): 6.18 L
- PEF, mean (healthy volunteers [2]; [10]): 10.83 L/s
- FEF25-75, mean (healthy volunteers [2]; [11]): 4.80 L/s
- FEV1, mean (healthy volunteers [2]; [11]): 5.08 L
- FVC, mean (healthy volunteers [2]; [11]): 6.39 L
- PEF, mean (healthy volunteers [2]; [11]): 11.14 L/s
- Oxygen Saturation (SpO2%), mean (healthy volunteers [2]; Cohort 2, 40 mg eTLD, Predose): 97%
- respiratory rate (healthy volunteers [2]; Cohorts 1, 2, 3, 5): minimal or no changes
- standard lung spirometry measurements and peripheral O2 saturation (healthy volunteers [2]; Cohorts 1, 2, 3, 5): normal before and after
- SpO2 pre-dose and post-dose values (healthy volunteers [2]; Cohorts 1 and 2): 97-98%
- lung function parameters (FVC, FEV1, PEF, FEF25-75) pre-dose and post-dose (healthy volunteers [2]; Cohorts 1 and 2): within the normal range for the population studied
- Auscultation (healthy volunteers [2]; inhaled 20, 30, 40 mg eTLD): normal
- Chest x-rays (healthy volunteers [2]; inhaled 20, 30, 40 mg eTLD): normal and showed no changes
- respiration rate (healthy volunteers [2]; inhaled 20, 30, 40 mg eTLD): No changes
- ECG trace: Afib conversion ([3]; 2 mg/kg (FIG. 12)): Afib converting as soon as dosing occurred
- ECG trace: Afib conversion ([3]; 4 mg/kg by intra-tracheal instillation (FIG. 11)): Afib converting into normal sinus rhythm
- ventricular rate ([3]; large pulmonary doses): slower ventricular rates
- effect on induced atrial fibrillation ([3]; pulmonary (IT) administration): rapidly converted the Atrial Fibrillation to normal sinus rhythm
- conversion of induced atrial fibrillation to normal sinus rhythm ([3]; pulmonary dose 2-4 mg/kg body weight): converted the induced atrial fibrillation to normal sinus rhythm
- cardiovascular effect when given by intratracheal instillation ([3]; summary of Example 2): clear cardiovascular effect
- effects in BP, VR and LV dP/dtmax upon conversion, IV vs IT ([4]; FIG. 69): Flecainide given IV caused greater effects
- dogs converted from AF to NSR ([4]; IT): 6/6
- representative ECG: conversion of AF to NSR ([4]; IT 0.75 mg/kg (FIGS. 68A-D)): conversion of AF to NSR
- Time to NSR, individual animals ([4]; IT, cumulative IT dose 0.75 mg/kg): 12 s and 23 s and 62 s
- Time to NSR, individual animals ([4]; IT, cumulative IT dose 0.75 (0.25 + 0.5) mg/kg): 147 s and 52 s
- Time to NSR, individual animals ([4]; IT, cumulative IT dose 1.0 (0.75 + 0.25) mg/kg): 83 s
- Time to NSR, Mean ± SEM ([4]; IT, mean dose 0.79 ± 0.04 mg/kg, 6 dogs, 0.04 mg/kg): 63 ± 18 s
- dogs converted from AF to NSR ([4]; IV bolus): 2/2
- time to conversion of AF to NSR ([4]; IV bolus): 29 s
- sufficiency of LV (left atrium) levels to terminate AF ([4]; pulmonary delivery): sufficient to rapidly terminate AF
- dose dependence of magnitude of HR increases (healthy volunteers [5]): not dose-dependent
- magnitude of blood pressure changes vs placebo (healthy volunteers [5]): similar
- HR (healthy volunteers [5]; iv, 2 mg/kg): An increase in HR was observed
- systolic and diastolic BP (healthy volunteers [5]; iv, 2 mg/kg): Decreases in systolic and diastolic BP
